Test results: patent US20170273922A1, “UREA AND BIS-UREA BASED COMPOUNDS AND ANALOGUES THEREOF USEFUL IN THE TREATMENT OF ANDROGEN RECEPTOR MEDIATED DISEASES OR DISORDERS” (THE ROYAL INSTITUTION FOR THE ADVACEMENT OF LEARNING/MCGILL …, priority 2014, published 2017)

Key:
[1] = MTT assay (cytotoxicity), LNCaP cells; format: cell-based; conditions: human, LNCaP cells
Experimental: (§1) MTT assays: LNCaP, 22Rv1, Du145, H1975, A549, MB231 and MCF-7 cells are maintained in RPMI 1640 supplemented with 10% FBS. Cells were seeded at a density of 6-7×10^3 cells per well in 96-well plates. After overnight incubation, cells in fresh RPMI 1640 supplemented with 10% FBS were exposed to DMSO vehicle control or test compounds at designated concentrations for 72 h. Viable cells were evaluated by MTT assays. Experiments were performed in triplicate and repeated at least twice.

[2] = MTT assay (cytotoxicity), 22Rv1 cells; format: cell-based; conditions: human, 22Rv1 cells
Experimental: as §1

SMILES	IC50 at 72 h ([1]; 72 h treatment, Table 6.1)	IC50 at 72 h ([2]; 72 h treatment, Table 6.1)	IC50 at 72 h ([1]; 72 h, Table 2.4)	IC50 at 72 h ([1]; 72 h, Table 2.3)	IC50 at 72 h ([2]; 72 h, Table 2.3)
O=C(Nc1cccc(C(F)(F)F)c1)Nc1ccc(NC(=O)c2cc(F)ccc2F)c(C(F)(F)F)c1 [Compound 901]	6.6 µM	4.7 µM			
O=C(Nc1cccc(C(F)(F)F)c1)Nc1ccc(F)c(NC(=O)c2cc(I)ccc2F)c1 [Compound 951]	4 µM	9.8 µM			
O=C(Nc1cccc(C(F)(F)F)c1)Nc1ccc(NC(=O)Nc2cccc(F)c2)c(C(F)(F)F)c1 [Compound 905]	5.5 µM	11.4 µM			
O=C(Nc1cccc(C(F)(F)F)c1)Nc1ccc(NC(=O)c2cccnc2F)c(C(F)(F)F)c1 [Compound 911]	13.8 µM	10 µM			
COc1cccc(NC(=O)N/C=C/c2cccs2)c1 [Compound 425]			> 20 µM		
O=C(Nc1ccc(C(F)(F)F)cc1)Nc1cc(NC(=O)Nc2ccc(C(F)(F)F)cc2)cc(C(F)(F)F)c1 [Compound 955]	1.5 µM	0.9 µM			
O=C(Nc1cccc(NC(=O)c2cccc(F)c2)c1)Nc1cccc(C(F)(F)F)c1 [Compound 914]	7.3 µM	8.7 µM			
O=C(Nc1cccc(C(F)(F)F)c1)Nc1ccc(NC(=O)c2cc(I)ccc2F)c(C(F)(F)F)c1 [Compound 952]	5.2 µM	7.8 µM			
O=C(Nc1cccc(C(F)(F)F)c1)Nc1ccc(C(=O)Nc2ccc(F)cc2)c(C(F)(F)F)c1 [Compound 904]	4.1 µM	3.2 µM			
O=C(Nc1cccc(C(F)(F)F)c1)Nc1ccc(NC(=O)c2ccc(F)cc2F)c(C(F)(F)F)c1 [Compound 902]	7.4 µM	4.5 µM			
O=C(Nc1cc(N2CCOCC2)cc(C(F)(F)F)c1)Nc1ccc(NC(=O)c2ccccc2F)c(C(F)(F)F)c1 [Compound 861]	9.7 µM				
O=C(Nc1cccc(C(F)(F)F)c1)Nc1cc(C(=O)O)cc(C(F)(F)F)c1 [Compound 949]	2.9 µM	32.9 µM			
O=C(Nc1cccc(C(F)(F)F)c1)Nc1ccc(F)c(NC(=O)c2cccc(F)c2)c1 [Compound 946]	8.4 µM	9.5 µM			
O=C(Nc1cccc(C(F)(F)F)c1)Nc1cc(NC(=O)Nc2cccc(C(F)(F)F)c2)cc(C(F)(F)F)c1 [Compound 953]	1.4 µM	0.9 µM			
O=C(Nc1cccc(C(F)(F)F)c1)Nc1ccc(NC(=O)c2cc(Cl)ccc2F)c(C(F)(F)F)c1 [Compound 907]	4.2 µM	4.2 µM			
O=C(Nc1ccc(Br)cc1)Nc1ccc(F)c(NC(=O)c2cc(C(F)(F)F)ccc2F)c1 [Compound 963]	2.4 µM	4.7 µM			
O=C(Nc1ccc(F)c(NC(=O)c2ccc(F)cc2F)c1)Nc1ccccc1C(F)(F)F [Compound 960]		5.7 µM			
O=C(Nc1cccc(C(F)(F)F)c1)Nc1ccc(NC(=O)c2cc(C(F)(F)F)ccc2F)c(C(F)(F)F)c1 [Compound 903]	6.8 µM	5 µM			
O=C(N/C=C/c1cc(C(F)(F)F)cc(C(F)(F)F)c1)Nc1ccc2[nH]ccc2c1 [Compound 516]				> 10 µM	> 10 µM
O=C(Nc1ccc(C(F)(F)F)cc1)Nc1ccc(F)c(NC(=O)c2ccc(F)cc2F)c1 [Compound 956]	3.5 µM	9.5 µM			
O=C(Nc1cccc(C(F)(F)F)c1)Nc1ccc(NC(=O)c2ccc(N3CCOCC3)cc2F)c(C(F)(F)F)c1 [Compound 879]	6.3 µM	6.8 µM			
O=C(Nc1ccc(NC(=O)c2ccccc2F)c(C(F)(F)F)c1)Nc1ccccc1C(F)(F)F [Compound 896]	5.2 µM	18.9 µM			
O=C(Nc1cccc(C(F)F)c1)Nc1ccc(NC(=O)c2cc(C(F)(F)F)ccc2F)c(C(F)(F)F)c1 [Compound 941]	5.4 µM	3.6 µM			
O=C(Nc1cccc(C(F)(F)F)c1)Nc1ccc(F)c(NC(=O)c2cc(F)ccc2F)c1 [Compound 942]	5.7 µM	7.1 µM			
O=C(Nc1cccc(C(F)(F)F)c1)Nc1ccc(NC(=O)c2c(F)cccc2F)c(C(F)(F)F)c1 [Compound 900]	> 10 µM	10.4 µM			
O=C(Nc1cccc(F)c1)Nc1cc(NC(=O)Nc2cccc(F)c2)cc(C(F)(F)F)c1 [Compound 964]	2.4 µM	1.8 µM			
O=C(N/C=C/c1c[nH]cn1)Nc1ccc([N+](=O)[O-])c(C(F)(F)F)c1 [Compound 454]			> 10 µM		

SMILES	IC50 at 72 h ([1]; 72 h treatment, Table 6.1)	IC50 at 72 h ([2]; 72 h treatment, Table 6.1)	IC50 at 72 h ([1]; 72 h, Table 2.4)	IC50 at 72 h ([1]; 72 h, Table 2.3)	IC50 at 72 h ([2]; 72 h, Table 2.3)
O=C(Nc1cccc(C(F)(F)F)c1)Nc1ccc(NC(=O)Nc2ccc(F)cc2)c(C(F)(F)F)c1 [Compound 898]	1.4 µM	5.1 µM			
O=C(Nc1ccc(Br)cc1)Nc1cc(F)ccc1NC(=O)c1ccc(F)cc1F [Compound 962]	5.3 µM	4.9 µM			
O=C(Nc1cccc(C(F)(F)F)c1)Nc1ccc(F)cc1NC(=O)c1ccc(F)cc1F [Compound 961]	6.2 µM	10.1 µM			
O=C(Nc1ccc(F)c(NC(=O)c2cc(C(F)(F)F)ccc2F)c1)Nc1ccccc1C(F)(F)F [Compound 959]	13.5 µM	8.7 µM			
O=C(Nc1cccc(C(F)(F)F)c1)Nc1ccc(F)c(NC(=O)c2ccc(F)cc2)c1 [Compound 947]	12.7 µM	15.9 µM			
O=C(Nc1cccc(C(F)(F)F)c1)Nc1ccc(F)c(NC(=O)c2cccc(F)c2F)c1 [Compound 948]	8 µM	17.1 µM			
O=C(N/C=C/c1cccc(OC(F)(F)F)c1)Nc1ccncn1 [Compound 875]	4.6 µM	8.8 µM			
O=C(Nc1cccc(C(F)F)c1)Nc1ccc(NC(=O)c2ccc(F)cc2F)c(C(F)(F)F)c1 [Compound 945]	7.3 µM	7.1 µM			
O=C(Nc1ccc(C(F)(F)F)cc1)Nc1ccc(NC(=O)c2ccccc2F)c(C(F)(F)F)c1 [Compound 897]	1.9 µM	7 µM			
O=C(N/C=C/c1cccs1)Nc1ccc2c(c1)OCO2 [Compound 426]			> 20 µM		
O=C(Nc1cccc(C(F)(F)F)c1)Nc1ccc(F)c(NC(=O)Nc2ccccc2F)c1 [Compound 950]	3.8 µM	7.8 µM			
O=C(Nc1cccc(C(F)(F)F)c1)Nc1ccc(F)c(NC(=O)c2ccc(F)cc2F)c1 [Compound 943]	6.3 µM	13 µM			
O=C(Nc1cccc(C(F)(F)F)c1)Nc1ccc(F)c(NC(=O)c2cc(Cl)ccc2F)c1 [Compound 929]	5.5 µM	5.7 µM			
O=C(Nc1cccc(C(F)(F)F)c1)Nc1ccc(F)c(NC(=O)c2c(F)cccc2F)c1 [Compound 913]	12.3 µM	14.2 µM			
O=C(Nc1cccc(C(F)F)c1)Nc1ccc(NC(=O)c2cc(F)ccc2F)c(C(F)(F)F)c1 [Compound 930]	8.2 µM	5.6 µM			
O=C(Nc1cccc(C(F)(F)F)c1)Nc1cc(NC(=O)c2ccccc2F)cc(C(F)(F)F)c1 [Compound 928]	2.4 µM	2 µM			
O=C(Nc1cccc(NC(=O)c2ccc(F)cc2)c1)Nc1cccc(C(F)(F)F)c1 [Compound 915]	9 µM	10.6 µM			
CN1CCN(c2cc(NC(=O)Nc3ccc(NC(=O)c4ccccc4F)c(C(F)(F)F)c3)cc(C(F)(F)F)c2)CC1 [Compound 862]	3.4 µM				
O=C(Nc1cccc(NC(=O)Nc2cccc(C(F)(F)F)c2)c1)Nc1cccc(C(F)(F)F)c1 [Compound 966]		6.6 µM			
O=C(Nc1cccc(F)c1)Nc1cc(F)ccc1NC(=O)c1ccc(F)cc1F [Compound 965]	4.3 µM	7.7 µM			
N#Cc1ccc(NC(=O)NCC(=O)c2cccc(C(F)(F)F)c2)cc1C(F)(F)F [Compound 937]			7.3 µM		
O=C(Nc1cccc(C(F)F)c1)Nc1ccc(NC(=O)c2ccccc2F)c(C(F)(F)F)c1 [Compound 912]	11.6 µM	16 µM			
O=C(N/C=C/c1cccc(C(F)(F)F)c1)NCc1cccc(C(F)(F)F)c1 [Compound 460]			7.9 µM		
O=C(Nc1cccc(C(F)(F)F)c1)Nc1ccc(F)c(NC(=O)c2cc(C(F)(F)F)ccc2F)c1 [Compound 944]	5.5 µM	4.5 µM			
O=C(Nc1cc(F)cc(C(F)(F)F)c1)Nc1ccc(NC(=O)c2ccccc2F)c(C(F)(F)F)c1 [Compound 878]	3.4 µM	3.2 µM			
N#Cc1ccc(NC(=O)NCC(=O)c2ccc(F)cc2)cc1C(F)(F)F [Compound 982]			4.6 µM		
